Assay results: the kinase profiling compilation of Christmann-Franck et al. (2016)

How the values were obtained:
Assay in all cases: KINOMEscan competition binding
Settings in all cases: compound 10.0 µM
[1] = tested on: ABL1 (human), P00519 [E255K]
[2] = tested on: PIK3CA (human), P42336 [E545A]
[3] = tested on: PIK3CA (human), P42336 [H1047Y]
[4] = tested on: KIT (human), P10721 [D816V]
[5] = tested on: EIF2AK4 KD2 (human), Q9P2K8 [S808G]
[6] = tested on: ABL1 (human), P00519 [T315I]
[7] = tested on: FLT3 (human), P36888 [K663Q]
[8] = tested on: FLT3 (human), P36888 [N841I]
[9] = tested on: EGFR (human), P00533 [746-750 del]
[10] = tested on: FLT3 (human), P36888 [ITD]
[11] = tested on: ABL1 (human), P00519 [Q252H]
[12] = tested on: KIT (human), P10721 [V559D]
[13] = tested on: KIT (human), P10721 [V559D/T670I]
[14] = tested on: ABL1 (human), P00519 [M351T]
[15] = tested on: EGFR (human), P00533 [G719S]
[16] = tested on: PIK3CA (human), P42336 [E545K]
[17] = tested on: EGFR (human), P00533 [L861Q]
[18] = tested on: EGFR (human), P00533 [P753S; 747-752 del]
[19] = tested on: PIK3CA (human), P42336 [Q546K]
[20] = tested on: PIK3CA (human), P42336 [C420R]
[21] = tested on: PIK3CA (human), P42336 [I800L]
Sequence of PIK3CA (human), P42336 [I800L] (P42336 whole entry I800L, looked up): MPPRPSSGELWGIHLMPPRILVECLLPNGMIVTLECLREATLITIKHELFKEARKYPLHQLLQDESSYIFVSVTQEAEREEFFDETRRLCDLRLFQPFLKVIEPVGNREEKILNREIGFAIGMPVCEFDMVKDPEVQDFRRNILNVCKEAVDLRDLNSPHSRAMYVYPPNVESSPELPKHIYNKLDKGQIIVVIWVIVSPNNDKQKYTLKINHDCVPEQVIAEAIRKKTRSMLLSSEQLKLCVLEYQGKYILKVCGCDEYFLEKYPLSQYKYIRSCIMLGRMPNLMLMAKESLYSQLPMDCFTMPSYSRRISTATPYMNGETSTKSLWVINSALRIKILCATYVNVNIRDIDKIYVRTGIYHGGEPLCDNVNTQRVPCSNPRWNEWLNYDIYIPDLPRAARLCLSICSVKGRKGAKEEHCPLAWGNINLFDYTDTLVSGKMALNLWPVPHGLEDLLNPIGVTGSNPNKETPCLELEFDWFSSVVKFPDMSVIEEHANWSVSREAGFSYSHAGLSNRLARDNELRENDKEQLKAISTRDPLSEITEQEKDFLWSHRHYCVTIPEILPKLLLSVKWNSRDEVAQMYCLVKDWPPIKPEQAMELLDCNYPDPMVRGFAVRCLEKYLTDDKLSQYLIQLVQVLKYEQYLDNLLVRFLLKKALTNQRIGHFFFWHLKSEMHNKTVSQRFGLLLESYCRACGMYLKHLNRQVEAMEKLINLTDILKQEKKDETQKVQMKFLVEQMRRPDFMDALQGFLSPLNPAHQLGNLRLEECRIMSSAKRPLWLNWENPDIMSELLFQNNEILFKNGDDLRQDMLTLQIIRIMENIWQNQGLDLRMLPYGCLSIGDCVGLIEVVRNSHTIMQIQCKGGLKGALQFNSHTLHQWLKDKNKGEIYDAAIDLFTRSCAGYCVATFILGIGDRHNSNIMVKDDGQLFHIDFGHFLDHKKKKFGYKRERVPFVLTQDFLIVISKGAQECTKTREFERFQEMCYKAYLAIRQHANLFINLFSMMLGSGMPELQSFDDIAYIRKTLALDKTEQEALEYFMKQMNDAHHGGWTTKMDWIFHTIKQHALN

Sequence of EIF2AK4 KD2 (human), Q9P2K8 [S808G] (Q9P2K8 whole entry S808G, looked up): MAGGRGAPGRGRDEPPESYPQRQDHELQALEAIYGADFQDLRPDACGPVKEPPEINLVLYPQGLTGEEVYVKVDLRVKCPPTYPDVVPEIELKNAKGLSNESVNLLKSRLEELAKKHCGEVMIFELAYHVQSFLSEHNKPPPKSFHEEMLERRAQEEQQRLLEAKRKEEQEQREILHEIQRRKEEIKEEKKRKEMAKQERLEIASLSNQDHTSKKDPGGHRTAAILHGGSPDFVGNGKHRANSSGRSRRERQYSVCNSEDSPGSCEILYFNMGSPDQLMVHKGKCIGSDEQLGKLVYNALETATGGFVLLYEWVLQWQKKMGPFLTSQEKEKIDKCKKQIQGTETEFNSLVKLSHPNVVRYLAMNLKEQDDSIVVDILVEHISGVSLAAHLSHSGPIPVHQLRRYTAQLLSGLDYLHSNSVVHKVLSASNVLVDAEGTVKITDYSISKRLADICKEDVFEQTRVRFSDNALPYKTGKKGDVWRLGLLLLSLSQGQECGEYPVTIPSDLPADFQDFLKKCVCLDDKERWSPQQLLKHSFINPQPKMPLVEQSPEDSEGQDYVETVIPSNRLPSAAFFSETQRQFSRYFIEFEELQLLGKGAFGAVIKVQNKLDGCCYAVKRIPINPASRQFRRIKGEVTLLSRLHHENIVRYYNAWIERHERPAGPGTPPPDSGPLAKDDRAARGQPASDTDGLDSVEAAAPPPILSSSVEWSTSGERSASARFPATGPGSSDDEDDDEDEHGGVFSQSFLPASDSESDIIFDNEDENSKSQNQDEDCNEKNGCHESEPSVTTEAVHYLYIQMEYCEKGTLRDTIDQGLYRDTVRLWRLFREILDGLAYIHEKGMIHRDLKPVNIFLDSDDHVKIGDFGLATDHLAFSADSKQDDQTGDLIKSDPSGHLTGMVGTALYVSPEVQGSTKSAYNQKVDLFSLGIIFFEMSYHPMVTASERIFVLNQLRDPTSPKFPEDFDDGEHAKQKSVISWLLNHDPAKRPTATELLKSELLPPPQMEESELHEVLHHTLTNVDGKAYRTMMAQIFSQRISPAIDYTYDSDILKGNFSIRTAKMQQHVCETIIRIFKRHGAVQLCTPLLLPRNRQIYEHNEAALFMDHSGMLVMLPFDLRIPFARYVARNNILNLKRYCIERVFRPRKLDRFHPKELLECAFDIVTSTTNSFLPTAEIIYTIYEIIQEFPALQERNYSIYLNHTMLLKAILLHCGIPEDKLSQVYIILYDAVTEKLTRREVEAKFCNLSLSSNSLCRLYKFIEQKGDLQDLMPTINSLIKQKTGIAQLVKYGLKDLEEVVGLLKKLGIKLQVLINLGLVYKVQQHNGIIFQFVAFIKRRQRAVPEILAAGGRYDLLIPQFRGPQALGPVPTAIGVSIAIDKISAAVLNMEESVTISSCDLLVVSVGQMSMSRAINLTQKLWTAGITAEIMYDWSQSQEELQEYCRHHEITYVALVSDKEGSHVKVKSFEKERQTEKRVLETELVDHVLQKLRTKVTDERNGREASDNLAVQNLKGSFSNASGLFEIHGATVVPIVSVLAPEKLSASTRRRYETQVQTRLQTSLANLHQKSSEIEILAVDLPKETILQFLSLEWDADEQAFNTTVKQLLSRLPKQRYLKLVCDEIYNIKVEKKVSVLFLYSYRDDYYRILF
Sequence of KIT (human), P10721 [D816V] (P10721 whole entry D816V, looked up): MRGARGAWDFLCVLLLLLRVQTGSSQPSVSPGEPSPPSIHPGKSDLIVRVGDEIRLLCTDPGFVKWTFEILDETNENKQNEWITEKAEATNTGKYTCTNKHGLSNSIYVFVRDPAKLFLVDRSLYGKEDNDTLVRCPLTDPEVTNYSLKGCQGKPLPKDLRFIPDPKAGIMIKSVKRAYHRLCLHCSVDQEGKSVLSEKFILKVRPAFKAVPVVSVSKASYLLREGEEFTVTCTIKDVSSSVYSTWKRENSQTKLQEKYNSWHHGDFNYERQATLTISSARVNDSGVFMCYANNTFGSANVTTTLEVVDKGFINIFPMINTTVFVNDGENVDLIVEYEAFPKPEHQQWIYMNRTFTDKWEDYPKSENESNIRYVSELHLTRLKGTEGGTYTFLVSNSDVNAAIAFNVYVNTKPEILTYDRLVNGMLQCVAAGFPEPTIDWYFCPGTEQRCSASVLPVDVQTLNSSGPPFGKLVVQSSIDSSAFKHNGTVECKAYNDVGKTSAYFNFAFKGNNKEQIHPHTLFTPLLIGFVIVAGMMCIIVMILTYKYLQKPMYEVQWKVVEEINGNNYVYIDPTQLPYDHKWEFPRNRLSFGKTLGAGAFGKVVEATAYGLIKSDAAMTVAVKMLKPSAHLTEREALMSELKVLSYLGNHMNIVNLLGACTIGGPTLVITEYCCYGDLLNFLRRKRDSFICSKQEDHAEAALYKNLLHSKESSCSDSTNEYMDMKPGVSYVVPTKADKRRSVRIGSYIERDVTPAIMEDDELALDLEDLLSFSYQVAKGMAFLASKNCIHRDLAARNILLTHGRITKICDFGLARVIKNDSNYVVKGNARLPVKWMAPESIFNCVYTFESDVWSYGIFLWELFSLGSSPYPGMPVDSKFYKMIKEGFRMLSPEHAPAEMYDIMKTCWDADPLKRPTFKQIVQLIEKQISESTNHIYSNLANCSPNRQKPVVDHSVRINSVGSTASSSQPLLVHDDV
Sequence of PIK3CA (human), P42336 [E545K] (P42336 whole entry E545K, looked up): as the sequence (P42336 whole entry I800L, looked up) above, with E545K, L800I counted along it
Sequence of PIK3CA (human), P42336 [Q546K] (P42336 whole entry Q546K, looked up): as the sequence (P42336 whole entry I800L, looked up) above, with Q546K, L800I counted along it
Sequence of KIT (human), P10721 [V559D/T670I] (P10721 whole entry V559D/T670I, looked up): as the sequence (P10721 whole entry D816V, looked up) above, with V559D, T670I, V816D counted along it
Sequence of PIK3CA (human), P42336 [H1047Y] (P42336 whole entry H1047Y, looked up): as the sequence (P42336 whole entry I800L, looked up) above, with L800I, H1047Y counted along it
Sequence of PIK3CA (human), P42336 [C420R] (P42336 whole entry C420R, looked up): as the sequence (P42336 whole entry I800L, looked up) above, with C420R, L800I counted along it
Sequence of KIT (human), P10721 [V559D] (P10721 whole entry V559D, looked up): as the sequence (P10721 whole entry D816V, looked up) above, with V559D, V816D counted along it
Sequence of PIK3CA (human), P42336 [E545A] (P42336 whole entry E545A, looked up): as the sequence (P42336 whole entry I800L, looked up) above, with E545A, L800I counted along it

kinase still bound, per cent of control [1] | kinase still bound, per cent of control [2] | kinase still bound, per cent of control [3] | kinase still bound, per cent of control [4] | kinase still bound, per cent of control [5] | kinase still bound, per cent of control [6] | kinase still bound, per cent of control [7] | kinase still bound, per cent of control [8] | kinase still bound, per cent of control [9] | kinase still bound, per cent of control [10] | kinase still bound, per cent of control [11] | kinase still bound, per cent of control [12] | kinase still bound, per cent of control [13] | kinase still bound, per cent of control [14] | kinase still bound, per cent of control [15] | kinase still bound, per cent of control [16] | kinase still bound, per cent of control [17] | kinase still bound, per cent of control [18] | kinase still bound, per cent of control [19] | kinase still bound, per cent of control [20] | Structure (SMILES) | also measured
100% | 100% | 100% | 100% | 100% | 100% | 100% | 100% | 100% | 100% | 100% | 100% | 100% | 100% | 100% | 100% | 100% | 100% | 100% | 100% | COc1cc(N2CCN(C)CC2)ccc1Nc1ncc2c(n1)N(C)c1ccccc1C(=O)N2C | –
100% | 100% | 100% | 100% | 100% | 100% | 100% | 100% | 100% | 100% | 100% | 100% | 100% | 100% | 100% | 100% | 100% | 100% | 100% | 100% | CCOc1cc(N2CCC(O)CC2)ccc1Nc1ncc2c(n1)N(C)c1ccccc1C(=O)N2C | –
20% | – | – | 4.5% | 100% | 0% | 2.6% | 0.35% | 100% | 0.25% | 11% | 18% | 22% | 7.9% | 100% | 4.7% | 100% | 100% | – | – | CNC(=O)c1ccc(Nc2cc(Nc3ccccc3S(=O)(=O)C(C)C)c3cc[nH]c3n2)nc1 | –

The remaining lines, values behind:

Structure (SMILES) | kinase still bound, per cent of control [1] | kinase still bound, per cent of control [2] | kinase still bound, per cent of control [3] | kinase still bound, per cent of control [4] | kinase still bound, per cent of control [5] | kinase still bound, per cent of control [6] | kinase still bound, per cent of control [7] | kinase still bound, per cent of control [8] | kinase still bound, per cent of control [9] | kinase still bound, per cent of control [10] | kinase still bound, per cent of control [11] | kinase still bound, per cent of control [12] | kinase still bound, per cent of control [13] | kinase still bound, per cent of control [14] | kinase still bound, per cent of control [15] | kinase still bound, per cent of control [16] | kinase still bound, per cent of control [17] | kinase still bound, per cent of control [18] | kinase still bound, per cent of control [19] | kinase still bound, per cent of control [20] | also measured
Cc1cn(-c2cc(C(=O)Nc3ccc(C)c(NC(=O)c4ccno4)c3)cc(C(F)(F)F)c2)cn1 | 18% | 100% | 100% | 27% | 100% | 100% | 100% | 100% | 100% | 100% | 13% | 0.15% | 100% | 11% | 100% | 100% | 100% | 100% | 100% | 100% | –
CS(=O)(=O)N1CCN(Cc2cc3nc(-c4cccc5[nH]ncc45)nc(N4CCOCC4)c3s2)CC1 | 100% | 0.35% | 14% | 100% | 100% | 100% | 100% | 100% | 100% | 100% | 100% | 100% | 100% | 100% | 100% | 0.3% | 100% | 100% | 0.35% | – | –
CCN(CCO)CCCOc1ccc2c(Nc3cc(CC(=O)Nc4cccc(F)c4)[nH]n3)ncnc2c1 | – | 31% | 30% | 23% | 62% | 0.6% | 1% | 0.15% | – | 2.5% | 32% | 0% | 0% | 39% | – | 100% | – | – | 15% | 72% | kinase still bound, per cent of control [21]: 100%
CCN(CC)CCCCNc1ncc2c(n1)N(C)C(=O)N(c1c(Cl)c(OC)cc(OC)c1Cl)C2 | 100% | 100% | 100% | 100% | 9.5% | 100% | 100% | 100% | 100% | 100% | 100% | 6.1% | 100% | 100% | 100% | 100% | 100% | 100% | 100% | 100% | –
